Test results: patent US7364882B1, “Enzymatic reduction of a nitrile containing compound to the corresponding amine” (State of Oregon Acting by and Through the State Board of …, priority 2004, dated 2008)
Numbering of substitutions follows the chain as printed. In names and notes the source's numbering stands. Like-named read-outs stand apart in the source and are kept apart here.

Legend:
Assay type in all cases: biochemical
[1] = system: QueF; assay: QueF nitrile oxido-reductase assay, continuous UV monitoring of NADPH oxidation (preQ0 to preQ1)
Protocol: PreQ0 oxido-reductase activity was determined using a number of redox cofactors, and activity was observed only in the presence of NADPH. […] […] Assays were run from 30 seconds to 2 hours.
To confirm that preQ1 was the reduced product as predicted, reaction assays were analyzed by reverse-phase HPLC (Bondclone 10 C-18, 300×3.9 mm) with a mobile phase of 20 mM ammonium actetate (pH 6.0) and methanol. With a flow-rate of 1 mL/min a series of linear gradients were developed from 20 mM ammonium acetate (pH 6.0) (buffer U) to 75% methanol in buffer U (buffer V) in the following manner (beginning time and ending time and linear increase to % V): 0-20.0 min, 0% V; 20.0-30.0 min, 8% V; 30.0-40.0 min, 20% V; 40.0-42.0 min, 100% V; 42.0-50.0 min, 100% V; and 50.0.0-52.0 min, 0% V. PreQ0 and preQ1 were detected with a diode array detector.

[2] = standard nitrile oxido-reductase assay of B. subtilis QueF mutants; settings: Glu98 substitution in SEQ ID NO: 2
Protocol: Assays were typically carried out at 30° C. in a final volume of 80 μL in a solution of 50 mM HEPES (pH 7.5), 50 mM KCl, 1 mM DTT, 2-150 μM NADPH, 0.2-150 μM preQ0, and 10-1000 nM QueF. Assays were run from 30 seconds to 2 hours.

[3] = GTP cyclohydrolase activity assays (radiochemical [14C]formic acid release, fluorescence, HPLC); settings: three assays, large screen of conditions (cyclohydrolase I, II, III)
Source text: GTP cyclohydrolase activity was investigated using three different assays (radiochemical based release of [^14C]formic acid, fluorescence, or HPLC analysis of reactions) and a large screen of assay conditions (including those for cyclohydrolase I, II, and III activity).

N#Cc1c[nH]c2nc(N)[nH]c(=O)c12 [preQ0, 7-cyano-7-deazaguanine]
Km ([1]; read-out: KM for preQ0): < 1 µM
kcat ([1]; variable NADPH and constant, saturating preQ0): 0.01 s⁻¹

NCC1C=Nc2nc(N)[nH]c(=O)c21 (stereo not shown) [preQ1, 7-aminomethyl-7-deazaguanine]
preQ0 generated when the reaction was run in reverse ([1]; reverse reaction with preQ1 and NADP+): < 1%

reduced form of nicotinamide adenine dinucleotide phosphate [NADPH]
Km ([1]; variable NADPH and constant, saturating preQ0, read-out: KM for NADPH): 36 µM

B1: E98M: QueF with substitution of Glu98 in SEQ ID NO: 2 to Met (protein)
chain: MTTRKESELEGVTLLGNQGTNYLFEYAPDVLESFPNKHVNRDYFVKFNCPEFTSLCPKTGQPDFATIYISYIPDEKMVESKSLKLYLFSFRNHGDFHMDCMNIIMNDLIELMDPRYIEVWGKFTPRGGISIDPYTNYGKPGTKYEKMAEYRMMNHDLYPETIDNR
ability to reduce PreQ0 [2]: significantly decreased

B2: YkvM: B. subtilis QueF Class I protein, SEQ ID NO: 2 (protein)
chain: B1 chain with M98E
GTP cyclohydrolase activity [3]: no GTP cyclohydrolase activity was detected

B3: YqcD: E. coli QueF Class II protein, SEQ ID NO: 4 (protein)
chain: MSSYANHQALAGLTLGKSTDYRDTYDASLLQGVPRSLNRDPLGLKADNLPFHGTDIWTLYELSWLNAKGLPQVAVGHVELDYTSVNLIESKSFKLYLNSFNQTRFNNWDEVRQTLERDLSTCAQGKISVALYRLDELEGQPIGHFNGTCIDDQDITIDNYEFTTDYLENATCGEKVVEETLVSHLLKSNCLITHQPDWGSLQIQYRGRQIDREKLLRYLVSFRHHNEFHEQCVERIFNDLLRFCQPEKLSVYARYTRRGGLDINPWRSNSDFVPSTTRLVRQ
GTP cyclohydrolase activity [3]: no GTP cyclohydrolase activity was detected
